Measurements from ChEMBL document CHEMBL6127139, “Lysine-Targeted Covalent Inhibitors of PI3Kδ Synthesis and Screening by In Situ Interaction Upgradation” (J Med Chem, 2024).

Experiments:
SU-DHL-6 [1] = experiment: Induction of apoptosis in human SU-DHL-6 cells assessed as viable cells at 0.1 uM incubated for 48 hrs by Annexin V-FITC/PI staining based flow cytometric analysis (reference value: 89.81 %); format: functional; conditions: read-out: Activity
[2] = Selectivity index, ratio of IC50 for inhibition of recombinant PI3Kalpha (unknown origin) using PIP2:3PS as substrate to IC50 for inhibition of recombinant PI3Kdelta (unknown origin) using PIP2:3PS as substrate
SU-DHL-6 [3] = experiment: Induction of apoptosis in human SU-DHL-6 cells assessed as late apoptotic cells at 1 uM incubated for 48 hrs by Annexin V-FITC/PI staining based flow cytometric analysis (reference value: 4.12 %); format: functional
[4] = Selectivity index, ratio of IC50 for inhibition of recombinant PI3Kgamma (unknown origin) using PIP2:3PS as substrate to IC50 for inhibition of recombinant PI3Kdelta (unknown origin) using PIP2:3PS as substrate

COc1ncc(-c2ccc3ncnc(N[C@H]4CCN(C(=O)C5CCOCC5)C4)c3n2)cc1C(=O)Oc1ccccc1
viability at 0.1 µM (SU-DHL-6 [1]): 65.3%
Ratio IC50 [2]: > 1000
Activity (SU-DHL-6 [3]): 20.35%
Ratio IC50 [4]: 359
